In patent US12173002B2, “PRMT5 inhibitors and methods of use” (SHANGHAI APEIRON THERAPEUTICS COMPANY LIMITED, priority 2022, dated 2024):

Tests used:
[1] = system: HCT-116 MTAP(−/−) deficient cells; test: Inhibitory activity on proliferation of HCT-116 MTAP(−/−) deficient cells (Cell-Titer Glo, 8 days); type: cell-based; details: Homo sapiens, HCT-116, 192 h, 8 days incubation
Procedure: Test 1: Compound's inhibitory activity on proliferation of HCT-116 MTAP(−/−) deficient cells. P Materials and Cells: HCT-116 MTAP(−/−) deficient cells obtained from Kyinno Bio (China); RPMI-1640 medium, fetal bovine serum, and penicillin-streptomycin purchased from Thermo Fisher Scientific (America); 384-well plates from PerkinElmer (America); Cell-Titer Glo assay kit from Promega (America).
Cell Culture: HCT116 MTAP(−/−) deficient cells were cultured in RPMI 1640 medium containing 10% fetal bovine serum and 1% penicillin-streptomycin at 37° C., 5% CO2. Only cells in logarithmic growth phase were used for experiments.
(§1) Cell Proliferation Inhibition Assay: The compound's inhibitory activity on HCT-116 MTAP(−/−) deficient cells was assessed using the Cell-Titer Glo assay kit. Adjusting cell concentration, 40 μL was seeded into a 384-well plate and cultured overnight at 37° C., 5% CO2. Each well received 40 nL of the compound, achieving concentrations from 0 to 10,000 nM (starting concentration 10,000 nM, 3-fold dilution, 10 points), with 0.1% DMSO. The cell plate was incubated for 8 days at 37° C., 5% CO2. Cell-Titer Glo reagent (40 μL) was added to measure cell viability.

[2] = system: HCT-116 MTAP wild-type cells; test: Inhibitory activity on proliferation of HCT-116 MTAP wild-type cells (Cell-Titer Glo, 8 days); type: cell-based; details: Homo sapiens, HCT-116, 192 h, 8 days incubation
Procedure: Test 2: Compound's inhibitory activity on proliferation of HCT-116 MTAP wild-type cells.
Materials and Cells: HCT-116 MTAP wild-type cells obtained from Kyinno Bio (China); RPMI-1640 medium, fetal bovine serum, and penicillin-streptomycin purchased from Thermo Fisher Scientific (America); 384-well plates from PerkinElmer (America); Cell-Titer Glo assay kit from Promega (America).
Cell Culture: HCT116 MTAP wild-type cells were cultured in RPMI 1640 medium containing 10% fetal bovine serum and 1% penicillin-streptomycin at 37° C., 5% CO2. Only cells in logarithmic growth phase were used for experiments.
as §1, with “MTAP wild-type” for “MTAP(−/−) deficient”

SMILES | IC50 [1] | IC50 [2]
Nc1nc2ccc(C(=O)N(C3CC3)[C@@H]3COc4cc(Br)ccc43)cc2n2cncc12 (single isomer, unassigned) [Example 82] | 52.9 nM | 1920 nM
N#Cc1ccc2c(c1)OC[C@@H]2N(C(=O)c1ccc2nc(N)c3cncn3c2c1)C1CC1 (single isomer, unassigned) [Example 91] | 2180 nM | > 20000 nM
N#Cc1ccc2c(c1)OC[C@H]2N(C(=O)c1ccc2nc(N)c3cncn3c2c1)C1CC1 (single isomer, unassigned) [Example 92] | 46.6 nM | 4750 nM
CN(C(=O)c1ccc2nc(N)c3cncn3c2c1)[C@H]1COCc2ccc(C(F)(F)F)cc21 (single isomer, unassigned) [Example 93] | > 3000 nM | > 10000 nM
CN(C(=O)c1ccc2nc(N)c3cncn3c2c1)[C@@H]1COCc2ccc(C(F)(F)F)cc21 (single isomer, unassigned) [Example 94] | 80.8 nM | 5170 nM
CN(C(=O)c1ccc2nc(N)c3cncn3c2c1)[C@H]1COc2cc(S(F)(F)(F)(F)F)ccc21 (single isomer, unassigned) [Example 103] | 931 nM | 6260 nM
CN(C(=O)c1ccc2nc(N)c3cncn3c2c1)C1COCc2ccc(C(F)(F)F)cc21 (centres unmarked) [Example 8, 4-amino-N-methyl-N-(6-(trifluoromethyl)isochroman-4-yl) imidazo[1,5-a] quinoxaline-8-carboxamide] | 106 nM | 6480 nM
CN(C(=O)c1cc2c(cc1C#N)nc(N)c1cncn12)[C@@H]1COc2cc(C(F)(F)F)ccc21 [Example 14, (S)-4-amino-7-cyano-N-methyl-N-(6-(trifluoromethyl)-2,3-dihydrobenzofuran-3-yl)imidazo[1,5-a] quinoxaline-8-carboxamide] | 14.7 nM | 1280 nM
CN(C(=O)c1cc2c(cc1Cl)nc(N)c1cncn12)[C@@H]1COc2cc(C(F)(F)F)ccc21 [Example 27, (S)-4-amino-7-chloro-N-methyl-N-(6-(trifluoromethyl)-2,3-dihydrobenzofuran-3-yl)imidazo[1,5-a]quinoxaline-8-carboxamide] | 4.4 nM | 842 nM
CN(C(=O)c1cc2c(cc1F)nc(N)c1cncn12)[C@@H]1COc2cc(S(C)(=O)=O)ccc21 [Example 38, (S)-4-amino-7-fluoro-N-methyl-N-(6-(methylsulfonyl)-2,3-dihydrobenzofuran-3-yl)imidazo[1,5-a] quinoxaline-8-carboxamide] | 30 nM | 4060 nM
Cc1ncc(-c2ccc3c(c2)OCC3N(C(=O)c2ccc3nc(N)c4cncn4c3c2)C2CC2)cn1 (centres unmarked) [Example 72, 4-amino-N-cyclopropyl-N-(6-(2-methylpyrimidin-5-yl)-2,3-dihydrobenzofuran-3-yl)imidazo[1,5-a]quinoxaline-8-carboxamide] | 117 nM | > 20000 nM
Nc1nc2ccc(C(=O)N(C3CC3)C3COc4cc(Br)ccc43)cc2n2cncc12 (centres unmarked) [Example 74, 4-amino-N-(6-bromo-2,3-dihydrobenzofuran-3-yl)-N-cyclopro-pylimidazo[1,5-a] quinoxaline-8-carboxamide] | 148 nM | 5990 nM
Nc1nc2ccc(C(=O)N(C3CC3)[C@H]3COc4cc(Br)ccc43)cc2n2cncc12 [Example 81, (R)-4-amino-N-(6-bromo-2,3-dihydrobenzofuran-3-yl)-N-cyclopropylimidazo[1,5-a]quinoxaline-8-carboxamide] | 1790 nM | 2360 nM
C[C@@H]1OC[C@@H](N(C)C(=O)c2ccc3nc(N)c4cncn4c3c2)c2ccc(C(F)(F)F)cc21 [Example 105, 4-amino-N-methyl-N-((1S,4S)-1-methyl-7-(trifluoromethyl)isoch-roman-4-yl)imidazo [1,5-a]quinoxaline-8-carboxamide] | 66.1 nM | 2190 nM
CN(C(=O)c1cc2c(cc1F)nc(N)c1cncn12)[C@H]1COc2cc(C(F)(F)F)ccc21 [Example 120, (R)-4-amino-7-fluoro-N-methyl-N-(6-(trifluoromethyl)-2,3-dihydrobenzofuran-3-yl)imidazo[1,5-a]quinoxaline-8-carboxamide] | 900 nM | > 10000 nM
CN(C(=O)c1ccc2nc(N)c3cncn3c2c1)[C@@H]1CSc2cc(S(=O)(=O)C3CC3)ccc21 [Example 133, (S)-4-amino-N-(6-(cyclopropylsulfonyl)-2,3-dihydrobenzo[b]thiophen-3-yl)-N-methylimidazo[1,5-a] quinoxaline-8-carboxamide] | 71.4 nM | > 10000 nM

Other lines, results leading:

IC50 [1] | IC50 [2] | SMILES
2640 nM | 4700 nM | Nc1nc2ccc(C(=O)N(C3CC3)[C@H]3COc4cc(C(F)(F)F)ccc43)cc2n2cncc12 (single isomer, unassigned) [Example 83]
9030 nM | 10800 nM | Nc1nc2cnc(C(=O)N(C3CC3)[C@H]3COc4cc(C(F)(F)F)ccc43)cc2n2cncc12 (single isomer, unassigned) [Example 87]
24.1 nM | 1850 nM | Nc1nc2cnc(C(=O)N(C3CC3)[C@@H]3COc4cc(C(F)(F)F)ccc43)cc2n2cncc12 (single isomer, unassigned) [Example 88]
> 3000 nM | > 10000 nM | CN(C(=O)c1ccc2nc(N)c3cncn3c2c1)[C@H]1COc2nc(C(F)(F)F)ccc21 (single isomer, unassigned) [Example 89]
36.4 nM | > 10000 nM | CN(C(=O)c1ccc2nc(N)c3cncn3c2c1)[C@@H]1COc2nc(C(F)(F)F)ccc21 (single isomer, unassigned) [Example 90]
29.6 nM | 6570 nM | CN(C(=O)c1cc2c(cc1F)nc(N)c1cncn12)[C@@H]1COc2cc(-c3cnn(C)c3)ccc21 [Example 34, (S)-4-amino-7-fluoro-N-methyl-N-(6-(1-methyl-1H-pyrazol-4-yl)-2,3-dihydrobenzofuran-3-yl)imidazo[1,5-a] quinoxaline-8-carboxamide]
22.4 nM | 2990 nM | CN(C(=O)c1ccc2nc(N)c3cncn3c2c1)C1CSc2cc(C(F)(F)F)ccc21 (centres unmarked) [Example 43, 4-amino-N-methyl-N-(6-(trifluoromethyl)-2,3-dihydrobenzo[b]thiophen-3-yl)imidazo [1,5-a]quinoxaline-8-carboxamide]
310 nM | > 10000 nM | CN(C(=O)c1ccc2nc(N)c3cncn3c2c1)C1CCOCc2cc(C(F)(F)F)ccc21 (centres unmarked) [Example 44, 4-amino-N-methyl-N-(8-(trifluoromethyl)-1,3,4,5-tetrahydrobenzo[c]oxepin-5-yl) imidazo[1,5-a] quinoxaline-8-carboxamide]
54 nM | 3890 nM | CN(C(=O)c1ccc2nc(N)c3cncn3c2c1)[C@@H]1COc2cc(Cl)ccc21 [Example 70, (S)-4-amino-N-(6-chloro-2,3-dihydrobenzofuran-3-yl)-N-methylimidazo[1,5-a]quinoxaline-8-carboxamide]
7.1 nM | 2070 nM | [2H]c1ncc2c(N)nc3ccc(C(=O)N(C)[C@@H]4COc5cc(C(F)(F)F)ccc54)cc3n12 [Example 78, (S)-4-amino-N-methyl-N-(6-(trifluoromethyl)-2,3-dihydrobenzofuran-3-yl)imidazo[1,5-a]quinoxaline-8-carboxamide-1-d]
5.6 nM | 1300 nM | [2H]c1ncn2c1c(N)nc1ccc(C(=O)N(C)[C@@H]3COc4cc(C(F)(F)F)ccc43)cc12 [Example 79, (S)-4-amino-N-methyl-N-(6-(trifluoromethyl)-2,3-dihydrobenzo-furan-3-yl)imidazo [1,5-a]quinoxaline-8-carboxamide-3-d]
88.1 nM | > 10000 nM | CN(C(=O)c1cc2c(cc1F)nc(N)c1cncn12)[C@@H]1CCOc2cc(-c3cnn(C(F)(F)F)c3)ccc21 [Example 113, (R)-4-amino-7-fluoro-N-methyl-N-(7-(1-(trifluoromethyl)-1H-pyrazol-4-yl)chroman-4-yl) imidazo[1,5-a] quinoxaline-8-carboxamide]
